Measured values as given in patent US9211294B2, “Phenothiazine compounds for treating mild cognitive impairment” (WisTa Laboratories Ltd., priority 2007, dated 2015).
Entries after “also recorded” stand apart in the source; their conditions may differ. Where a name gives a salt, the structure may show the parent alone.

Key:
[1] = tested on: NMRI mice aged 2-3, 6 and 13 months; experiment: Water maze learning and memory in young and aged NMRI mice; settings: 2-3 month mice; 1.5 hours; MTC 1 mg/kg i.p.
[2] = tested on: mice; assay type: in vivo; settings: for highest effective and safe dose: i.p., mice
[3] = in vivo, ip
[4] = tested on: scopolamine-treated NMRI mice; experiment: Morris water maze spatial reference memory task, reversal of scopolamine-induced cognitive deficits; assay type: in vivo; settings: for Learning / Thigmotaxis / S-T memory: mg/kg i.p.; for S-T memory: probe 1.5 h
Procedure: (§1) Female, NMRI mice aged 3-4 months were from Harlan, UK.
Mice were group housed (7-9 per cage) and maintained with light from 7 am-7 pm and experiments carried out in the light phase. […] They were separated into 6 groups to receive drug administrations as follows:
(§2) The injection volume for drugs was 0.2 ml per 30 g animal weight and they were injected intraperitoneally. The doses were as indicated above.
The water maze consisted of a water-filled pool (1.5 m diameter; 20±2° C.) in which a platform submerged 1 cm below water surface was the only means of escape. Mice were released from 4 cardinal sites (South, West, North and East) facing the wall of the pool in random fashion and thus had to acquire spatial knowledge of the exact platform location by spatial mapping procedures using distal cues.
Each animal was given 6 trials/day and was allowed to swim for a maximum time of 60 seconds and stay 30 seconds on the platform. […] An inter-trial interval of 10-20 minutes was given. The animals were trained for 4 consecutive days and received probe trials (free swim for 60 seconds without platform in the pool) approximately 1.5 and 24 hours post-training to test short and long-term memory, respectively. The behaviour of animals was recorded via an overhead camera and data transmitted to the PC for online storage and analysis (EthoVision basic version 3.0.8. Noldus Information Technology, Netherlands).
Probe trial data were analysed by one-way ANOVA and the appropriate post-hoc tests (Bonferroni's multiple comparison test or Newman Keuls) were carried out to determine the source of a significant main effect or interaction. Analyses were performed two-tailed and the null hypothesis was […] at probability levels of 5% (p<0.05). Only terms for reliable differences are mentioned in the text for simplicity.

[5] = tested on: saline treated NMRI mice; experiment: Morris water maze spatial reference memory task, drug given after saline (otherwise unimpaired animals, side-effect profiling); assay type: in vivo; settings: saline then Rivast (0.125), mg/kg i.p.
Procedure: as §1
Mice were group housed (7-9 per cage) and maintained with light from 7 am-7 pm and experiments carried out in the light phase. There were 82 mice in total, of which 12 were excluded from the study for circling behaviour during the water maze test. They were separated into 6 groups to receive drug administrations as follows:
as §2
Behavioural testing was undertaken using the Morris water maze spatial navigational task (Morris, 1984). […]
Each animal was given 6 trials/day and was allowed to swim for a maximum time of 60 seconds and stay 30 seconds on the platform. […] The behaviour of animals was recorded via an overhead camera and data transmitted to the PC for online storage and analysis (EthoVision basic version 3.0.8. Noldus Information Technology, Netherlands). […]
Behavioural data of acquisition learning were analysed by conventional statistics (Graph Pad Prism version 4.01) using factorial repeated measures analysis of variance (ANOVA) with treatment as between-subject and day/trial as within-subject factor followed by planned comparisons between selected groups. […]

[6] = Brain levels of MTC after administration; settings: post administration
[7] = scopolamine 0.5 mg/kg then rivastigmine 0.5 mg/kg, probe trials
[8] = scopolamine (0.5) then Rivast (0.1)
[9] = scopolamine (0.5) then Rivast (0.125)
[10] = scopolamine (0.5) then Rivast (0.125), listed as Rivast
[11] = scopolamine (0.5) then Rivast (0.25)
[12] = scopolamine (0.5) then Rivast (0.25), listed as Rivast
[13] = scopolamine (0.5) then Rivast (0.5)
[14] = scopolamine (0.5) then Rivast (0.5), listed as Rivast

For `CN(C)c1ccc2nc3ccc(N(C)C)cc3[s+]c2c1` [MTC, methyl-thioninium chloride], the “time spent in the target quadrant” value [1] was “no effect”, the “highest effective and safe dose” value [2] was 4 mg/kg and the “time of peak brain levels” value [3] was 30 to 60 min. For the same compound, the “saturation of dose-response relationship for learning and memory formation” value ([4]; linear dose-response) was “about 4 mg/kg”.
For `CCN(C)C(=O)Oc1cccc([C@H](C)N(C)C)c1` [rivastigmine, rivastigmine tartrate], the “adverse effects (motor coordination problems, ataxia, brief episodes of convulsions)” value ([2]; doses of 0.5 and 0.25 mg/kg, in the absence of scopolamine treatment) was “severe adverse effects”, the “highest effective and safe dose” value [2] was 0.125 mg/kg and the Learning [5] was “did not alter spatial learning”. The S-T memory ([5]; probe 1.5 h) was “↑↓”, the “dose required to fully restore spatial learning” value ([4]; administered acutely, scopolamine-treated NMRI mice) was > 0.125 mg/kg and the “overall learning between day 1 and 4 (overall reduction in path length)” value ([4]; scopolamine 0.5 mg/kg then rivastigmine 0.1 mg/kg) was “substantial overall improvement”. The “thigmotaxis during memory phase” value ([4]; scopolamine 0.5 mg/kg then rivastigmine 0.5 mg/kg) was “not significantly different from either scopolamine or saline”, the “logarithmic transform of pathlength (advanced analysis)” value ([4]; scopolamine 0.5 mg/kg then rivastigmine 0.5 mg/kg i.p., by day 4) was “reverse the deficit” and the “proportion of time spent in target quadrant (probe trials)” value ([4]; scopolamine 0.5 mg/kg then rivastigmine 0.5 mg/kg, pooled day 4 and day 5) was “did not reverse”. For the same compound, the “latency (composite parameter, temporal accuracy)” value [4, 7] was “no effect at all”, the “localisation (composite parameter, spatial accuracy)” value [4, 7] was “not able to reverse the deficit” and the Learning [4, 8] was “ineffective”. The Thigmotaxis [4, 8] was “↓”, the Learning ([4]; scopolamine (0.5) then Rivast (0.1), listed as Rivast) was “↓” and the S-T memory [4, 8] was “↓”. For the same compound, the Thigmotaxis [4, 9] was “↑”, the Learning [4, 10] was “↑” and the Learning ([4]; scopolamine (0.5) then Rivast (0.125), listed as Rivastigmine) was “fully reversed”. For the same compound, the S-T memory [4, 9] was “spatial bias was established”, the S-T memory [4, 10] was “↑” and the Learning [4, 11] was “only partial”. For the same compound, the Thigmotaxis [4, 11] was “↓”, the Learning [4, 12] was “↑↓” and the S-T memory [4, 11] was “memory deficit”. For the same compound, the S-T memory [4, 12] was “↓”, the Thigmotaxis [4, 13] was “reversed” and the Learning [4, 14] was “↑”. The Thigmotaxis [4, 14] was “↑”, the Learning ([4]; scopolamine (0.5) then Rivast (0.5), listed as Rivastigmine) was “completely reversed; also recorded: fully reversed” and the S-T memory [4, 13] was “memory deficit”. The S-T memory [4, 14] was “↓”.
In the case of methyl-thioninium chloride [MTC], the “time at which brain levels are maximal” value [6] is reported as 1 to 4 h.
